Measurements taken from ChEMBL document CHEMBL1127128, “CGS 27830, a potent nonpeptide endothelin receptor antagonist” (Bioorg Med Chem Lett, 1993).
One block for each compound: values may come before it.

Assays:
[1] = biological target: T1, Endothelin receptor type B (Rattus norvegicus, UniProt P21451); experiment: Tested for its inhibitory activity against Endothelin B receptor; Compound was inactive
T1 sequence (P21451 whole entry): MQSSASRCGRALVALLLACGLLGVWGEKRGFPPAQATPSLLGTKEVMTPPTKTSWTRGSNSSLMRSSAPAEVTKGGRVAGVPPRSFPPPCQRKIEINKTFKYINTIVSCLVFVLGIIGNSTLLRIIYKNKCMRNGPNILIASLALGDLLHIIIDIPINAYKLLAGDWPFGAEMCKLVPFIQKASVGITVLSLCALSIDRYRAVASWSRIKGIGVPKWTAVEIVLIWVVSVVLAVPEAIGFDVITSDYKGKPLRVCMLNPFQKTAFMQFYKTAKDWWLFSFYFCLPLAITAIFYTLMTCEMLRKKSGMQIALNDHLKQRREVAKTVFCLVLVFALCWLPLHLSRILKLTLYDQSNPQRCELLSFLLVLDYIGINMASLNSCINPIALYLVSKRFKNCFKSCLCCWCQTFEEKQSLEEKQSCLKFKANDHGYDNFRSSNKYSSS

Endothelin-1 receptor [2] = biological target: T2, Endothelin-1 receptor (Sus scrofa, UniProt Q29010); experiment: Tested for its inhibitory activity against Endothelin A receptor; inactive
T2 sequence (Q29010 whole entry): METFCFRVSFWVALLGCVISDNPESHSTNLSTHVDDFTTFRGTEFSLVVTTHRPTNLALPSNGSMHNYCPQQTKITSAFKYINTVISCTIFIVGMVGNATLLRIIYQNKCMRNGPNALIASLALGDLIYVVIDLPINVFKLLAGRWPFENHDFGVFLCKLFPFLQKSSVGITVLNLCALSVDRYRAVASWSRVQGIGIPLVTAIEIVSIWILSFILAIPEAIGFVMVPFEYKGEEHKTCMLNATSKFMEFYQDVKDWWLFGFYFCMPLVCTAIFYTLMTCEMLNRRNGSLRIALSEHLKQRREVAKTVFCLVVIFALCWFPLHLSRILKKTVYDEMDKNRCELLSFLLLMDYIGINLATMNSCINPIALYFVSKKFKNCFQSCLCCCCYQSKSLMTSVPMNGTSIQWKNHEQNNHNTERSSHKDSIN

[3] = Tested for inhibition of ET-1 induced phosphoinositide (PI) turnover in A7r5 smooth muscle cells; format: functional, cell-based; details: Rattus norvegicus
[4] = The half-life period was reported.; format: ADME
[5] = biological target: T1, Endothelin receptor type B; experiment: Tested for its ability to inhibit the binding of [125I]ET1 to the Endothelin B receptor in rat cerebellum membranes.; format: cell membranes, Membrane
Endothelin-1 receptor [6] = biological target: T2, Endothelin-1 receptor; experiment: Tested for its ability to inhibit the binding of [125I]ET1 to the Endothelin A receptor in porcine thoracic aorta membranes.; format: cell membranes
[7] = biological target: Voltage-gated L-type calcium channel (Rattus norvegicus, UniProt P22002+Q02485+P27732); experiment: Inhibition of [3H]PN-200-110 binding to L-type calcium channels in rat cortex membranes.; format: cell membranes, Membrane
Oryctolagus cuniculus [8] = organism: Oryctolagus cuniculus; experiment: Tested for inhibition of ET-1 induced contractile response in isolated rabbit aorta at the concentration of 0.1 uM; format: functional
Oryctolagus cuniculus [9] = organism: Oryctolagus cuniculus; experiment: Tested for inhibition of ET-1 induced contractile response in isolated rabbit aorta at the concentration of 1 uM; format: functional
Oryctolagus cuniculus [10] = organism: Oryctolagus cuniculus; experiment: Tested for inhibition of ET-1 induced contractile response in isolated rabbit aorta at the concentration of 10 uM; format: functional
Rattus norvegicus [11] = experiment: Tested for the dose at which depressor response attenuated by intravenous administration in conscious rat; format: functional
Rattus norvegicus [12] = experiment: Tested for the dose at which pressor response abolished by intravenous administration; format: functional
[13] = biological target: T1, Endothelin receptor type B; experiment: Tested for its inhibitory activity against Endothelin B receptor
Endothelin-1 receptor [14] = biological target: T2, Endothelin-1 receptor; experiment: Tested for its inhibitory activity against Endothelin A receptor

- IC50 [1]: Not Active
- IC50 (Endothelin-1 receptor [2]): Not Active
SMILES: COC(=O)C1=C(C)N=C(C)/C(=C(/O)OC(=O)C2=C(C)N=C(C)/C(=C(/O)OC)[C@H]2c2cccc([N+](=O)[O-])c2)[C@@H]1c1cccc([N+](=O)[O-])c1

- EC50 [3]: 0.143 µM
- half-life [4]: < 1 h
- IC50 [5]: 0.295 µM
- IC50 (Endothelin-1 receptor [6]): 0.0159 µM
- IC50 [7]: 0.592 µM
SMILES: COC(=O)C1=C(C)N=C(C)/C(=C(/O)OC(=O)C2=C(C)N=C(C)/C(=C(/O)OC)[C@@H]2c2cccc([N+](=O)[O-])c2)[C@@H]1c1cccc([N+](=O)[O-])c1
- inhibition at 0.1 µM (Oryctolagus cuniculus [8]): 33%
- inhibition at 1 µM (Oryctolagus cuniculus [9]): 42%
- inhibition at 10 µM (Oryctolagus cuniculus [10]): 77%
- Dose (Rattus norvegicus [11]): 0.25 nM/kg
- Dose (Rattus norvegicus [12]): 10 mg/kg

- IC50 [13]: 2.7 µM
- IC50 (Endothelin-1 receptor [14]): 0.422 µM
SMILES: COC(=O)C1=C(C)N=C(C)/C(=C(/O)OC(=O)C2=C(C)N=C(C)/C(=C(/O)OC)[C@@H]2c2cccc([N+](=O)[O-])c2)[C@H]1c1cccc([N+](=O)[O-])c1
